Results on one molecule are retold here after patent US5883294A, “Selective thyroid hormone analogs” (The Regeants of the University of California, priority 1997, dated 1999).

Broadly, the IC50 is the point on the concentration scale where inhibition reaches its midpoint. Lower therefore signals inhibition by little substance.

This assay has as its target T1, TR α1 (Rattus norvegicus, UniProt P63059).
T1 construct: made in house; host or cells: E. coli
The assay is described as follows: Receptor Binding Assays of TR Ligands ([125I]T3 displacement), TR α1.

T1 sequence (P63059 other isoform, or with tags, fused parts or gaps): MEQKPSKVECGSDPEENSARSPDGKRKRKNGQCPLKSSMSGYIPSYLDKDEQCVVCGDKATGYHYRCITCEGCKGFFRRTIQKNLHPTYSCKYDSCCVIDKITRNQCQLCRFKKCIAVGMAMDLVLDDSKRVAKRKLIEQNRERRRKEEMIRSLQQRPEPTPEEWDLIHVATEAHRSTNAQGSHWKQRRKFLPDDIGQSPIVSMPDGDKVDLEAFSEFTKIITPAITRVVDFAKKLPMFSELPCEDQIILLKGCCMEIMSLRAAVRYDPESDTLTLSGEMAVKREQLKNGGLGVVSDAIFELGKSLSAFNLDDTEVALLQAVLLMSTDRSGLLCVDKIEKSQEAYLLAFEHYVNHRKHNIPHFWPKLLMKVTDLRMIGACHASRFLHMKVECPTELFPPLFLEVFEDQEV

`Cc1cc(OCC(=O)O)cc(C)c1Cc1ccc(O)c(C(C)C)c1` [GC1, [3,5-dimethyl-4-(4'-hydroxy-3'-isopropylbenzyl)-phenoxy] acetic acid] displayed an IC50 of 20 nM.
